# Results published in patent US10085955B2, “Methods and compositions for treatment of demyelinating diseases” (Pathologica LLC, priority 2013, dated 2018).
# Tests used:
# [1] = system: PGE2 production in carrageenan air pouch; test: Carrageenan air pouch model; type: in vivo, Lewis rats; settings: rat pouch fluid, 3 or 24 hours post-carrageenan; naproxen 10 mg/kg, dexamethasone 1 mg/kg
# Excerpt: Injection of air subcutaneously will induce the formation of a connective tissue cavity lined with cells that resemble and function like a synovial lining. This method is commonly known as the Air Pouch Model and is a useful animal model of inflammation that can be generated in a relatively short period of time. The air pouch may be created by subcutaneous (SQ) injection of a volume of sterile air in the dorsal neck region. The model may be used to test the efficacy and potency of compounds such as polyamine analogues and polyamine biosynthesis inhibitors such as MGBG in reducing various cellular and biochemical indicators of inflammation when administered as an oral (PO) gavage administration. Healthy Male Lewis rats (Charles River Laboratories, Wilmington, Mass.) weighing between 175-200 g were used. […] A correction factor of 1.49 was used to account for the dihydrochloride salt/monohydrate form of MGBG. […] Air pouches were formed on the dorsum of the rats during the last 4 days of MGBG or vehicle administration prior to carrageenan injection. Briefly, rats were anesthetized with isoflurane, during which dorsal hair was removed and 20 mL of sterile air was injected subcutaneously into the intrascapular region. Pouches were allowed to develop for the next 4 days, with re-inflation (to maintain pouch volume) of pouches 1 day prior to carrageenan injection. One hour prior to carrageenan injection, animals were given their last dose of drug (MGBG, vehicle, naproxen, or dexamethasone). A 1% suspension of carrageenan (2 mL; FMC BioPolyer, Philadelphia, Pa.) suspended in saline was injected into the pouch cavity. At either 3 hours or 24 hours post-carrageenan injection, rats were euthanized by CO2 asphyxiation and 2.5 mL of PBS (Sigma Chemical, St. Louis, Mo.) was injected directly into the pouch. The pouch was opened with surgical scissors and the pouch fluid was collected using a transfer pipette. One aliquot was collected for measurement of total cell count with differential, and the other aliquot for PGE2 determination. […]
# [2] = system: MOG-induced experimental autoimmune encephalomyelitis (EAE); test: First MOG EAE protocol (murine multiple sclerosis model); type: in vivo, C57BL/6 mice; settings: first 28-day study; MGBG 30 mpk BID, fingolimod 3 mpk QD; throughout/duration of experiment
# Excerpt: An experimental murine model of multiple sclerosis employing a myelin oligodendrocyte glycoprotein (MOG) peptide to induce experimental autoimmune encephalomyelitis (EAE) was employed to determine the efficacy of MGBG in preventing and treating that disease. Because of its many similarities to MS, EAE is commonly used to study pathogenesis of autoimmunity, CNS inflammation, demyelination, cell trafficking, and tolerance induction. EAE is characterized by paralysis (in some models the paralysis is remitting-relapsing), CNS inflammation and demyelination. EAE is mediated primarily by dendritic cells, myelin-specific T cells (e.g. Th1 and Th17), and M1 macrophages. B cells may also play a role in some models of EAE. Body weight also tracks disease progression. EAE is induced in C57BL/6 mice by immunization with MOG35-55 or MOG1-125 in CFA emulsion followed by administration of pertussis toxin (PTX) in PBS. The emulsion provides antigen which initiates expansion and differentiation of MOG-specific autoimmune T cells. PTX enhances EAE development by providing additional adjuvant and facilitating entrance of autoimmune T cells into the CNS.
# Chronic EAE develops in C57BL/6 mice after immunization with an emulsion of MOG35-55/CFA or MOG1-125/CFA followed by injection of pertussis toxin. This model is used to test the potential of compounds to prevent or mitigate EAE disease. It can be run with the compound dosed from the time of immunization (prophylactic treatment), or with the aim of reversing the course of disease and facilitating recovery by dosing the compound from the time of EAE onset (therapeutic treatment). The model uses female C57BL/6 mice of age 10 to 14 weeks at the start of the study. Typically, EAE develops 8-18 days after immunization. EAE development is usually followed for 4 weeks (28 days) after immunization.
# In prophylactic studies, treatment begins before disease onset, at the time of immunization and group assignment. Mice are assigned to treatment groups in a balanced manner to achieve groups with similar distributions of body weights. Prophylactic studies assess if treatment will affect the course of disease both before and after the first clinical signs of EAE. To compensate for the stress of treatment in prophylactic treatment studies and achieve the target disease severity, EAE may be induced with a higher dose of pertussis toxin than used in therapeutic studies. The dose of pertussis toxin is based on expected stress due to dosing (route, frequency, and formulation of vehicle).
# Clinically, EAE progression is scored on a scale of 0 to 5, wherein each score represents the following clinical observations:
# Inflammatory foci of approximately 20 cells were counted in each H&E stained section. When inflammatory infiltrates consisted of more than 20 cells, an estimate was made of how many foci of 20 cells were present.
# The demyelination score represents an estimate of demyelinated area for each section as follows:
# Unless otherwise noted, statistical analysis was performed as follows: disease incidence compared using chi-square test; mean day of EAE onset, change in body weight, and number of apoptotic cells compared using 2-tailed Student's t-test; median day of EAE onset compared using Wilcoxon's survival test; mean maximum score (MMS), end score, and demyelination scores (LFB and H&E) compared using Wilcoxon's non-parametric test.
# Ten week old female C57BL/6 mice weighing 18-23 g (Taconic Farms) were divided into four groups: mock immunized (n=3) and three MOG-immunized groups receiving MGBG at 30 mpk BID (as the di-HCl monohydrate with a correction factor of 1.49), fingolimod (FTY720) at 3 mpk QD with a second mock vehicle dose, or 0.9% saline vehicle BID (n=12 each). […]
Compound,production of PGE2 (inflammatory and basal levels) [1],mean clinical score (scale 0 to 5) [2]
COc1ccc2cc([C@H](C)C(=O)O)ccc2c1 [naproxen],inhibited production of both inflammatory and basal levels,
CCCCCCCCc1ccc(CCC(N)(CO)CO)cc1 [fingolimod],,0
